Laboratory results published in patent US20230183215A1, “Notch Inhibitors and Uses Thereof” (StemSynergy Therapeutics, Inc., priority 2020, published 2023).
Structures can show the parent of a compound that is named as a salt.

What was measured:
Notch1 = biological target: T1, Notch1 (Homo sapiens, UniProt P46531); experiment: Notch1 Reporter Assay (CSL-responsive luciferase, doxycycline-induced Notch-ICD in 293A cells); format: cell-based; settings: 25 ng/mL Dox, 24 h, luciferase normalized to cell viability
T1 construct: pLV[Tet]-Puro-TRE3G>Notch1-ICD; expressed in transfected cells; host or cells: 293A cells
T1 sequence (P46531 1754-2555 limits assumed): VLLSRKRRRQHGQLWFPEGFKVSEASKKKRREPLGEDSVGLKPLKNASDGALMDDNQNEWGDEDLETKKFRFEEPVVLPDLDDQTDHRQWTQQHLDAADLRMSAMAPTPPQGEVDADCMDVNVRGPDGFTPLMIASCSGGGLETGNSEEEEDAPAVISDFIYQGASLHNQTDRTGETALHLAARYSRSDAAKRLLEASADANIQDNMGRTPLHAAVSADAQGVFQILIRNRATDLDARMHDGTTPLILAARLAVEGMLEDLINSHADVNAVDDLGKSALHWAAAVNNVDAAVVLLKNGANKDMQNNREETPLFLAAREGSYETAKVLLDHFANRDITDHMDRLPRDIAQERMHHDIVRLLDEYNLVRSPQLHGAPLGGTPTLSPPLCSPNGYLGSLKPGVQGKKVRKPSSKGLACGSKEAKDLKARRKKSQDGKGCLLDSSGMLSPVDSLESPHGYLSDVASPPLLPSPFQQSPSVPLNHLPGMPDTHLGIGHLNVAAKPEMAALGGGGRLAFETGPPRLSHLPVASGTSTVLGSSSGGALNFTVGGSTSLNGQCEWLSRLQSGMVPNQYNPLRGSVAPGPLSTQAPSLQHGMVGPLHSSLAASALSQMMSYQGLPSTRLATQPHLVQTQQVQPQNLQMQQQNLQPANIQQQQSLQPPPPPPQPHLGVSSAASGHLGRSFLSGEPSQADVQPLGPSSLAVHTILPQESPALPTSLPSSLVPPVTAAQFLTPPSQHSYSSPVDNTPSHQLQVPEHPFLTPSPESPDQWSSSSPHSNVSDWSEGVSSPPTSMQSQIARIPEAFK
Protocol: 293A cells expressing 1) pCMV-Tet-On 3G, 2) pLV[Tet]-Puro-TRE3G>Notch1-ICD, 3) pLV[Tet]-Puro-TRE3G>Notch2-ICD, 4) pLV[Tet]-Puro-TRE3G>Notch3-ICD, and 5) pCSL-RElement-Luc were used. When Doxycycline is added, the Tet-ON gene activates expression of hNotch1ICD, which together with endogenous NTC components binds to CSL responsive elements (pCSL-RElement-Luc) and expresses luciferase. 1×10^4 cells are plated in 100 μL (96-well format). 24 h later, compounds (10 mM stock in DMSO) are diluted in DMSO to 200×, then added (5 ul into 1 mL) to cell culture media containing 50 ng/mL Dox. This is then added 1:1 to cells. Final DMSO=0.25%, Dox=25 ng/mL. After 24 h, media is discarded, and cells are lysed in passive lysis buffer (Promega). Cells are rocked at room temperature for 15 min and then lysate is divided for luciferase assay (Luciferase Assay System, Promega) and cell viability (CellTiter Glo 2.0, Promega). Raw luciferase is normalized to cell viability, and then scaled to DMSO wells. Results are analyzed and IC50's are determined in GraphPad by nonlinear regression curve fitting (4 parameter) of dose response curves.

[1] = tested on: OE33 Esophageal Adenocarcinoma cell line; experiment: OE33 Colony Formation Assay; format: cell-based; settings: Homo sapiens, 200 cells/well, compound every 48 hours for 7 days, CellTiter-Glo
Protocol: OE33 Colony Formation Assay:
The OE33 Esophageal Adenocarcinoma cell line was cultured and plated into 96-well tissue culture plates under sparse conditions (200 cells/well). Test compounds were serially diluted in DMSO and then into culture media (final DMSO concentration=0.1%). Compound/media was then added to cells every 48 hours for a total of 7 days. Clonogenic growth was assessed using the CellTiter-Glo reagent, according to manufacturer (Promega) specifications. Percent inhibition was calculated as the percent of luminescence normalized to control (0.1% DMSO) wells. Nonlinear regression curve fitting was performed using GraphPad Prism software to determine EC50's.

COc1cc(-c2cc(C(F)(F)F)cc3c2n(C)c(=O)n3CC(=O)Nc2ccccc2Cl)cc(F)c1OCc1nnc[nH]1 [SSTN-491, 2-(4-(4-((4H-1,2,4-triazol-3-yl)methoxy)-3-fluoro-5-methoxyphenyl)-3-methyl-2-oxo-6-(trifluoromethyl)-2,3-dihydro-1H-benzo[d]imidazol-1-yl)-N-(2-chlorophenyl)acetamide hydrochloride] showed an IC50 (Notch1) of 11.1 µM and an EC50 [1] of 4.6 µM.
For COc1cc(-c2cc(C(F)(F)F)cc3c2n(C)c(=O)n3CC(=O)Nc2cncc(C)c2)cc(F)c1OCc1nnc[nH]1 [SSTN-502, 2-(4-(4-((4H-1,2,4-triazol-3-yl)methoxy)-3-fluoro-5-methoxyphenyl)-3-methyl-2-oxo-6-(trifluoromethyl)-2,3-dihydro-1H-benzo[d]imidazol-1-yl)-N-(5-methylpyridin-3-yl)acetamide hydrochloride], the IC50 (Notch1) was 12 µM and the EC50 [1] was 8 µM.
COc1cc(-c2cc(C(F)(F)F)cc3c2n(C)c(=O)n3CC(=O)Nc2ccc(F)nc2)cc(F)c1OCc1nnc[nH]1 [SSTN-609, 2-(4-(4-((4H-1,2,4-triazol-3-yl)methoxy)-3-fluoro-5-methoxyphenyl)-3-methyl-2-oxo-6-(trifluoromethyl)-2,3-dihydro-1H-benzo[d]imidazol-1-yl)-N-(6-fluoropyridin-3-yl)acetamide] gave an IC50 (Notch1) of 10.3 µM and an EC50 [1] of 18.8 µM.
Work on COc1cc(-c2cc(C(F)(F)F)cc3c2n(C)c(=O)n3CC(=O)Nc2cccnc2F)cc(F)c1OCc1nnc[nH]1 [SSTN-612, 2-(4-(4-((4H-1,2,4-triazol-3-yl)methoxy)-3-fluoro-5-methoxyphenyl)-3-methyl-2-oxo-6-(trifluoromethyl)-2,3-dihydro-1H-benzo[d]imidazol-1-yl)-N-(2-fluoropyridin-3-yl)acetamide] yielded an IC50 (Notch1) of 13.2 µM and an EC50 [1] of 17.1 µM.
With COc1cc(-c2cc(C(F)(F)F)cc3c2n(C)c(=O)n3CC(=O)N(C)c2ccc(F)cc2F)cc(F)c1OCc1nnc[nH]1 [compound 447, 2-(4-(4-((4H-1,2,4-triazol-3-yl)methoxy)-3-fluoro-5-methoxyphenyl)-3-methyl-2-oxo-6-(trifluoromethyl)-2,3-dihydro-1H-benzo[d]imidazol-1-yl)-N-(2,4-difluorophenyl)-N-methylacetamide hydrochloride] the IC50 (Notch1) was 3.3 µM and the EC50 [1] was 2.8 µM.
For COc1cc(-c2cc(C(F)(F)F)cc3c2n(C)c(=O)n3CC(=O)N(C)c2ccc(C(F)(F)F)cc2)cc(F)c1OCc1nnc[nH]1 [compound 439, 2-(4-(4-((4H-1,2,4-triazol-3-yl)methoxy)-3-fluoro-5-methoxyphenyl)-3-methyl-2-oxo-6-(trifluoromethyl)-2,3-dihydro-1H-benzo[d]imidazol-1-yl)-N-methyl-N-(4-(trifluoromethyl)phenyl)acetamide hydrochloride], the IC50 (Notch1) was 3.5 µM and the EC50 [1] was 1.2 µM.
In the case of COc1cc(-c2cc(C(F)(F)F)cc3c2n(C2CC2)c(=O)n3CC(=O)N(C)c2ccc(F)cc2)cc(F)c1OCc1nnc[nH]1 [compound 464, 2-(4-(4-((4H-1,2,4-triazol-3-yl)methoxy)-3-fluoro-5-methoxyphenyl)-3-cyclopropyl-2-oxo-6-(trifluoromethyl)-2,3-dihydro-1H-benzo[d]imidazol-1-yl)-N-(4-fluorophenyl)-N-methylacetamide hydrochloride], the IC50 (Notch1) is reported as 1.7 µM and the EC50 [1] is reported as 1.3 µM.
With COc1cc(-c2cc(C(F)(F)F)cc3c2n(C)c(=O)n3CC(=O)N(C)c2ccc(F)cc2)cc(F)c1OCc1nnc[nH]1 [compound 440, 2-(4-(4-((4H-1,2,4-triazol-3-yl)methoxy)-3-fluoro-5-methoxyphenyl)-3-methyl-2-oxo-6-(trifluoromethyl)-2,3-dihydro-1H-benzo[d]imidazol-1-yl)-N-(4-fluorophenyl)-N-methylacetamide hydrochloride] the IC50 (Notch1) was 3.1 µM and the EC50 [1] was 4.6 µM.
